# Data published in US6355658B1, “Coumarin derivatives, methods of preparation and application as medicines” (Centre National de la Recherche Scientifique, priority 1997, dated 2002).
# Read-outs that look alike come from different tables or passages of the source.
# Key:
# human leukocyte elastase = target: T1, human leukocyte elastase (Homo sapiens, UniProt P08246); assay: Inactivation kinetics of human leukocyte elastase (chromogenic substrate MeOSuc-Ala2-Pro-Val-pNA); format: biochemical; settings: for kinact/KI / Ki/KI or kobs/[I], LHE: 25° C., pH 8.0; for kinact/KI: inactivation phase of transient inactivation, read-out: Ki/KI or kobs/[I], LHE; for Ki/KI or kobs/[I], LHE: inactivation phase
# T1 sequence (P08246 30-247 limits assumed): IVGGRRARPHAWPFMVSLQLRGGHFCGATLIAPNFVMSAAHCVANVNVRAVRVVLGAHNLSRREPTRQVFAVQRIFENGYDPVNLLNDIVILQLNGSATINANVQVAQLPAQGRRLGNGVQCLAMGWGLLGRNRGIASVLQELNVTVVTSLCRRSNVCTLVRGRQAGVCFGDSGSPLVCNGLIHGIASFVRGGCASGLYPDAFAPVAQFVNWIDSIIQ
# Protocol: (§1) The inactivating or inhibitory properties of the coumarin derivatives were tested with respect to a certain number of enzymes: human leukocyte elastase, bovine α-chymotrypsin, human thrombin and bovine trypsin. The kinetic measurements were taken at 25° C. in the following buffers: 0.1 M Hepes, 0.5 M NaCl, 0.01% Tween 80, pH 8.0 (human leukocyte elastase); 0.025 M NaH2PO4, 0.05 M KCl, pH 7.5 (α-chymotrypsin); 0.01 M Tris, 0.01 M Hepes, 0.1 M NaCl, 0.1% PEG-6000, pH 7.5 (human thrombin); 0.1 M Tris, 0.01 M CaCl2, pH 7.5 (bovine trypsin). The chromogenic substrates used to determine the activity of the enzymes are: MeOSuc-Ala2-Pro-Val-pNA (human leukocyte elastase); Suc-Ala2-Pro-Phe-pNA (α-chymotrypsin); H-D-Phe-Pip-Arg-pNA (human thrombin); N-benzoyl-Arg-pNA (bovine trypsin) (pNA: para-nitroaniline).
# (§2) The interaction of a suicide substrate with a serine protease corresponds to the minimum reaction scheme described in equation 1 in which E represents the enzyme, I represents the inhibitor, E-I represents the acyl-enzyme and E-I′ represents the inactivated enzyme [Silverman R. B., 1988, “Mechanism-based enzyme inactivation: chemistry and enzymology”, volume 1 CRC Press, Boca Raton, Fla.]: [drawing 76]
# (§3) When k4 is small compared to k3, equation 1 can be simplified (equation 2, [Daniels et al., 1983, J. Biol. Chem., 258: 15046-15053]): [drawing 77]
# (§4) Considering the first instants of the reaction, the system reduces to a simplified equation of the form of equation 2.
# (§5) The kinetic constants characterizing the inactivation of the enzymes with the coumarin derivatives were determined using either the conventional sampling method (or batchwise method) or a method placing the inhibitor and the substrate in competition (or continuous method); these methods are described by Pochet et al. [Pochet et al., 1996, J. Med. Chem., 39: 2579-2585].
# (§6) The inactivation of serine proteaaes with the coumarin derivatives is thus characterized by the following constants (see Eq. 2):
# (§7) KI: apparent dissociation constant of an enzyme-inhibitor complex located upstream of ki
# (§8) ki: first-order rate constant for inactivation at infinite inhibitor concentration
# (§9) ki/KI: index of the overall inactivating efficacy of the inhibitor.
# human thrombin = target: T2, human thrombin (Homo sapiens, UniProt P00734); assay: Inactivation kinetics of human thrombin (chromogenic substrate H-D-Phe-Pip-Arg-pNA); format: biochemical; settings: 25° C., pH 7.5, N.I. = non-inactivator; for kinact/KI: read-out: Ki/KI or kobs/[I], Thrombin
# T2 construct: human thrombin
# Protocol: as §1, §2, §3, §4, §5, §6, §7, §8, §9
# bovine α-chymotrypsin = target: T3, bovine α-chymotrypsin (Bos taurus, UniProt P00766); assay: Inactivation kinetics of bovine α-chymotrypsin (chromogenic substrate Suc-Ala2-Pro-Phe-pNA); format: biochemical; settings: 25° C., pH 7.5, N.I. = non-inactivator; for kinact/KI: TABLE 1, 2-pyridyl esters, read-out: Ki/KI or kobs/[I], α-CT
# T3 construct: bovine α-chymotrypsin
# Protocol: as §1, §2, §3, §4, §5, §6, §7, §8, §9
# bovine trypsin = target: T4, bovine trypsin (Bos taurus, UniProt P00760); assay: Inactivation kinetics of bovine trypsin (chromogenic substrate N-benzoyl-Arg-pNA); format: biochemical; settings: 25° C., pH 7.5, N.I. = non-inactivator
# T4 sequence (P00760 24-246): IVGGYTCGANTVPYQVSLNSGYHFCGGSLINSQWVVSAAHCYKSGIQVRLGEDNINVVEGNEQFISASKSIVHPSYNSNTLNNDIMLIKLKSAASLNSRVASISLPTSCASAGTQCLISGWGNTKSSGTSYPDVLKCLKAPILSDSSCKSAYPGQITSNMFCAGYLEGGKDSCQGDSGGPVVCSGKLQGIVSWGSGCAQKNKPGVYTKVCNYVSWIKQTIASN
# Protocol: as §1, §2, §3, §4, §5, §6, §7, §8, §9
# [1] = TABLE 3, no chloromethyl in position 6
# [2] = TABLE 1, 2-pyridyl esters, inactivation phase
Compound,melting point,kinact/KI (human leukocyte elastase; [1]),"Ki/KI or kobs/[I], LHE (human leukocyte elastase; TABLE 3)","Ki/KI or kobs/[I], Trypsin (bovine trypsin; TABLE 3)","Ki/KI or kobs/[I], Trypsin (bovine trypsin; second table headed TABLE 3)","kinact/KI (human leukocyte elastase; TABLE 1, 2-pyridyl esters)","Ki/KI or kobs/[I], LHE (human leukocyte elastase; TABLE 1)",kinact/KI (human thrombin; [2]),"Ki/KI or kobs/[I], Thrombin (human thrombin; TABLE 1, inactivation phase)",kinact/KI (bovine α-chymotrypsin),"Ki/KI or kobs/[I], Trypsin (bovine trypsin; TABLE 1, 2-pyridyl esters)","Ki/KI or kobs/[I], Trypsin (bovine trypsin; TABLE 1)","half-reactivation time for the enzyme (human leukocyte elastase; compound 750 nM, HLE 100 nM)","time during which the inhibition remains at 90% (human leukocyte elastase; compound 750 nM, HLE 100 nM)","inhibition at 0.75 µM (human leukocyte elastase; compound 750 nM, HLE 100 nM, reached in less than one minute)","Ki/KI or kobs/[I], Thrombin (human thrombin; [2])","Ki/KI or kobs/[I], Thrombin (human thrombin; TABLE 3)","Ki/KI or kobs/[I], Thrombin (human thrombin; second table headed TABLE 3)","Ki/KI or kobs/[I], α-CT (bovine α-chymotrypsin; [1])","Ki/KI or kobs/[I], α-CT (bovine α-chymotrypsin; second table headed TABLE 3)"
"CC(=O)OCc1ccc2oc(=O)c(C(=O)Oc3cncc(Cl)c3)cc2c1 [Id3, 5-chloro-3-pyridyl 6-acetoxymethyl-2-oxo-2H-1-benzopyran-3-carboxylate]",153 to 155 °C,107000 M⁻¹ s⁻¹,107000 M⁻¹ s⁻¹,N.I. N.I. N.I. N.I. N.I. N.I. N.I. — —,N.I. N.I. N.I. N.I. N.I. N.I. N.I. — —,–,–,–,–,–,–,–,–,–,–,–,N.I. N.I. N.I. N.I. N.I. N.I. N.I. N.I. —,N.I. N.I. N.I. N.I. N.I. N.I. N.I. N.I. —,N.I.^a N.I. N.I. N.I. N.I. N.I. N.I. N.I.,N.I.^a N.I. N.I. N.I. N.I. N.I. N.I. N.I.
"O=C(Oc1ccccn1)c1cc2cc(CCl)ccc2oc1=O [Ic′″9, 2-pyridyl 6-chloromethyl-2-oxo-2H-1-benzopyran-3-carboxylate]",125 to 129 °C,–,–,–,–,420 M⁻¹ s⁻¹,420 M⁻¹ s⁻¹,~240 M⁻¹ s⁻¹,~240 M⁻¹ s⁻¹,1670 M⁻¹ s⁻¹,N.I.^a — — N.I. N.I.,N.I.^a — — N.I. N.I.,–,–,–,–,–,–,–,–
"Cc1ccc2oc(=O)c(C(=O)Oc3cncc(Cl)c3)cc2c1 [Ib2, 5-chloro-3-pyridyl 6-methyl-2-oxo-2H-1-benzopyran-3-carboxylate]",215 to 217 °C,32500 M⁻¹ s⁻¹,32500 M⁻¹ s⁻¹,N.I. N.I. N.I. N.I. N.I. N.I. N.I. — —,N.I. N.I. N.I. N.I. N.I. N.I. N.I. — —,–,–,–,–,–,–,–,35 min,80 min,90%,–,N.I. N.I. N.I. N.I. N.I. N.I. N.I. N.I. —,N.I. N.I. N.I. N.I. N.I. N.I. N.I. N.I. —,N.I.^a N.I. N.I. N.I. N.I. N.I. N.I. N.I.,N.I.^a N.I. N.I. N.I. N.I. N.I. N.I. N.I.

# Now from value to compound, other results behind:
melting point,kinact/KI (human leukocyte elastase; [1]),"Ki/KI or kobs/[I], LHE (human leukocyte elastase; TABLE 3)","Ki/KI or kobs/[I], Trypsin (bovine trypsin; TABLE 3)","Ki/KI or kobs/[I], Trypsin (bovine trypsin; second table headed TABLE 3)","kinact/KI (human leukocyte elastase; TABLE 1, 2-pyridyl esters)","Ki/KI or kobs/[I], LHE (human leukocyte elastase; TABLE 1)",kinact/KI (human thrombin; [2]),"Ki/KI or kobs/[I], Thrombin (human thrombin; TABLE 1, inactivation phase)",kinact/KI (bovine α-chymotrypsin),"Ki/KI or kobs/[I], Trypsin (bovine trypsin; TABLE 1, 2-pyridyl esters)","Ki/KI or kobs/[I], Trypsin (bovine trypsin; TABLE 1)","half-reactivation time for the enzyme (human leukocyte elastase; compound 750 nM, HLE 100 nM)","time during which the inhibition remains at 90% (human leukocyte elastase; compound 750 nM, HLE 100 nM)","inhibition at 0.75 µM (human leukocyte elastase; compound 750 nM, HLE 100 nM, reached in less than one minute)","Ki/KI or kobs/[I], Thrombin (human thrombin; [2])",Compound,"Ki/KI or kobs/[I], Thrombin (human thrombin; TABLE 3)","Ki/KI or kobs/[I], Thrombin (human thrombin; second table headed TABLE 3)","Ki/KI or kobs/[I], α-CT (bovine α-chymotrypsin; [1])","Ki/KI or kobs/[I], α-CT (bovine α-chymotrypsin; second table headed TABLE 3)"
146 to 148 °C,67600 M⁻¹ s⁻¹,67600 M⁻¹ s⁻¹,N.I. N.I. N.I. N.I. N.I. N.I. N.I. — —,N.I. N.I. N.I. N.I. N.I. N.I. N.I. — —,–,–,–,–,–,–,–,–,–,–,–,"CCCC(=O)OCc1ccc2oc(=O)c(C(=O)Oc3cncc(Cl)c3)cc2c1 [Id10, 5-chloro-3-pyridyl 6-butyryloxymethyl-2-oxo-2H-1-benzopyran-3-carboxylate]",N.I. N.I. N.I. N.I. N.I. N.I. N.I. N.I. —,N.I. N.I. N.I. N.I. N.I. N.I. N.I. N.I. —,N.I.^a N.I. N.I. N.I. N.I. N.I. N.I. N.I.,N.I.^a N.I. N.I. N.I. N.I. N.I. N.I. N.I.
160 to 162 °C,–,–,–,–,200 M⁻¹ s⁻¹,200 M⁻¹ s⁻¹,–,N.I.,3300 M⁻¹ s⁻¹,N.I.^a — — N.I. N.I.,N.I.^a — — N.I. N.I.,–,–,–,N.I.,"Cc1cccc(OC(=O)c2cc3cc(CCl)ccc3oc2=O)n1 [Ic′″10, 6-methyl-2-pyridyl 6-chloromethyl-2-oxo-2H-1-benzopyran-3-carboxylate]",–,–,–,–
152 to 154 °C,–,–,–,–,300 M⁻¹ s⁻¹,300 M⁻¹ s⁻¹,3900 M⁻¹ s⁻¹,3900 M⁻¹ s⁻¹,5950 M⁻¹ s⁻¹,N.I.^a — — N.I. N.I.,N.I.^a — — N.I. N.I.,–,–,–,–,"Cc1ccnc(OC(=O)c2cc3cc(CCl)ccc3oc2=O)c1 [Ic′″11, 4-methyl-2-pyridyl 6-chloromethyl-2-oxo-2H-1-benzopyran-3-carboxylate]",–,–,–,–
156 to 158 °C,62000 M⁻¹ s⁻¹,62000 M⁻¹ s⁻¹,N.I. N.I. N.I. N.I. N.I. N.I. N.I. — —,N.I. N.I. N.I. N.I. N.I. N.I. N.I. — —,–,–,–,–,–,–,–,–,–,–,–,"CCC(=O)OCc1ccc2oc(=O)c(C(=O)Oc3cncc(Cl)c3)cc2c1 [Id6, 5-chloro-3-pyridyl 6-propionyloxymethyl-2-oxo-2H-1-benzopyran-3-carboxylate]",N.I. N.I. N.I. N.I. N.I. N.I. N.I. N.I. —,N.I. N.I. N.I. N.I. N.I. N.I. N.I. N.I. —,N.I.^a N.I. N.I. N.I. N.I. N.I. N.I. N.I.,N.I.^a N.I. N.I. N.I. N.I. N.I. N.I. N.I.
